Results taken from US20260022142A1, “MACROCYCLIC IMMUNOMODULATORS” (Bristol-Myers Squibb Company, priority 2022, published 2026).
Bridge positions count the residues as written; N and C are the ends. Square brackets hold non-standard residues; d marks the D form. Peptide text beside a SMILES is read from it. * marks the point of attachment. Tyr(3,5-F2) = N[C@@H](Cc1cc(F)c(O)c(F)c1)C(=O)O; Bip = N[C@@H](Cc1ccc(-c2ccccc2)cc1)C(=O)O; Tyr(3-F) = N[C@@H](Cc1ccc(O)c(F)c1)C(=O)O; Phe(4-NH2) = Nc1ccc(C[C@H](N)C(=O)O)cc1; Phe(3-Me) = Cc1cccc(C[C@H](N)C(=O)O)c1; His(π-Me) = Cn1cncc1C[C@H](N)C(=O)O; Val(3-OH) = CC(C)(O)[C@H](N)C(=O)O; mTyr = N[C@@H](Cc1cccc(O)c1)C(=O)O; dAla(cPr) = N[C@H](CC1CC1)C(=O)O; 4Pal = N[C@@H](Cc1ccncc1)C(=O)O; Cha = N[C@@H](CC1CCCCC1)C(=O)O; Cit = NC(=O)NCCC[C@H](N)C(=O)O; dCba = N[C@H](CC1CCC1)C(=O)O; Carboxymethyl = O=C(O)C*; Orn = NCCC[C@H](N)C(=O)O; Aun = NCCCCCCCCCCC(=O)O; Dab = NCC[C@H](N)C(=O)O; Dap = NC[C@H](N)C(=O)O; AEEA = NCCOCCOCC(=O)O

Biological target: T1, PD-1/PD-L1 interaction (PE-labeled human PD-L1-Ig binding to Jurkat cell line over-expressing human PD-1) (Homo sapiens, UniProt Q15116)
T1 construct: expressed in transfected cells; host or cells: Jurkat
Assay: Jurkat-PD-1 Cell Binding High-Content Screening Assay (CBA)
Format: cell-based
Details: Jurkat cell line over-expressing human PD-1; PE-labeled PD-L1-Ig 20 nM final; read-out: Jurkat hPD1-PDL1 IC50
Procedure, shortened: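 Binding of fluorescent PD-L1-Ig (20 nM final) to Jurkat-PD-1 cells was measured by automated imaging after 1 h, following a 2 h compound pre-treatment at 37° C.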

T1 sequence (Q15116 25-288): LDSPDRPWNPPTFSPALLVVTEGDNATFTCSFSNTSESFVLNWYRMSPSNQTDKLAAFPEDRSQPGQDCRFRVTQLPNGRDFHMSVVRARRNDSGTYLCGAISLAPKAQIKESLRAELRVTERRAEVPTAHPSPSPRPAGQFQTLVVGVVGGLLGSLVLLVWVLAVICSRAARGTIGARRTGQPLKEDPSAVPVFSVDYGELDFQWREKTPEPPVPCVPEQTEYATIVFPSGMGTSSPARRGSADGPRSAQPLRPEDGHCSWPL

IC50 [nM]	Structure (SMILES)
10.5	Cc1cccc(C[C@@H]2NC(=O)[C@H](CC(=O)O)NC(=O)[C@H](Cc3ccc(OCC(=O)O)cc3)NC(=O)[C@H](CN)NC(=O)CSC[C@@H](C(=O)N[C@@H](CC(=O)O)C(=O)NCCOCCOCC(=O)NCCCCCCCCCCC(=O)O)NC(=O)[C@H](CCCN)NC(=O)[C@H](C(C)C)NC(=O)[C@H](CC3CCCCC3)NC(=O)[C@H](CCN)NC(=O)[C@@H](CC(C)C)NC(=O)[C@H](CCCN)NC(=O)[C@H](CCCNC(N)=O)NC(=O)[C@H](Cc3ccc(-c4ccccc4)cc3)NC(=O)[C@H](C(C)C)NC2=O)c1 [Compound 2020] ({CH2CO}-[Dap]Y(Carboxymethyl)D[Phe(3-Me)]V[Bip][Cit][Orn][dL][Dab][Cha]V[Orn]CD[AEEA][Aun]-OH; thioether N-14)
30.8	Cc1cccc(C[C@@H]2NC(=O)[C@H](CC(=O)O)NC(=O)[C@H](Cc3ccc(OCC(=O)O)cc3)NC(=O)[C@H](CN)NC(=O)CSC[C@@H](C(=O)N[C@@H](CC(=O)O)C(=O)NCCOCCOCC(=O)NCCCCCCCCCCC(=O)O)NC(=O)[C@@H](CO)NC(=O)[C@H](C(C)C)NC(=O)[C@H](CC3CCCCC3)NC(=O)[C@H](CCN)NC(=O)[C@@H](CC(C)C)NC(=O)[C@H](CCCN)NC(=O)[C@H](CCCNC(N)=O)NC(=O)[C@H](Cc3ccc(-c4ccccc4)cc3)NC(=O)[C@H](C(C)C)NC2=O)c1 [Compound 2021] ({CH2CO}-[Dap]Y(Carboxymethyl)D[Phe(3-Me)]V[Bip][Cit][Orn][dL][Dab][Cha]V[dS]CD[AEEA][Aun]-OH; thioether N-14)
59.5	Cc1cccc(C[C@@H]2NC(=O)[C@H](CC(=O)O)NC(=O)[C@H](Cc3ccc(OCC(=O)O)cc3)NC(=O)[C@H](Cc3ccncc3)NC(=O)CSC[C@@H](C(=O)N[C@@H](CCN)C(=O)NCCOCCOCC(=O)NCCCCCCCCCCC(=O)O)NC(=O)[C@H](CN)NC(=O)[C@H](C(C)(C)O)NC(=O)[C@H](CC3CCCCC3)NC(=O)[C@H](CCN)NC(=O)[C@@H](CC(C)C)NC(=O)[C@H](CCCN)NC(=O)[C@H](Cc3ccc(OCC(=O)O)cc3)NC(=O)[C@H](Cc3ccc(-c4ccccc4)cc3)NC(=O)[C@H](Cc3ccc(OCC(=O)O)cc3)NC2=O)c1 [Compound 2022] ({CH2CO}-[4Pal]Y(Carboxymethyl)D[Phe(3-Me)]Y(Carboxymethyl)[Bip]Y(Carboxymethyl)[Orn][dL][Dab][Cha][Val(3-OH)][Dap]C[Dab][AEEA][Aun]-OH; thioether N-14)
10.2	Cc1cccc(C[C@@H]2NC(=O)[C@H](CC(=O)O)NC(=O)[C@H](Cc3ccc(OCC(=O)O)cc3)NC(=O)[C@H](CN)NC(=O)CSC[C@@H](C(=O)N[C@@H](CCN)C(=O)NCCOCCOCC(=O)NCCCCCCCCCCC(=O)O)NC(=O)[C@H](CO)NC(=O)[C@H](C(C)(C)O)NC(=O)[C@H](CC3CCCCC3)NC(=O)[C@H](CCN)NC(=O)[C@@H](CC(C)C)NC(=O)[C@H](CCCN)NC(=O)[C@H](Cc3ccc(OCC(=O)O)cc3)NC(=O)[C@H](Cc3ccc(-c4ccccc4)cc3)NC(=O)[C@H](Cc3ccc(OCC(=O)O)cc3)NC2=O)c1 [Compound 2023] ({CH2CO}-[Dap]Y(Carboxymethyl)D[Phe(3-Me)]Y(Carboxymethyl)[Bip]Y(Carboxymethyl)[Orn][dL][Dab][Cha][Val(3-OH)]SC[Dab][AEEA][Aun]-OH; thioether N-14)
20.5	Cc1cccc(C[C@@H]2NC(=O)[C@H](CC(=O)O)NC(=O)[C@H](Cc3ccc(OCC(=O)O)cc3)NC(=O)[C@H](CN)NC(=O)CSC[C@@H](C(=O)N[C@@H](CCN)C(=O)NCCCCCCCCCCC(N)=O)NC(=O)[C@H]([C@@H](C)O)NC(=O)[C@H](C(C)C)NC(=O)[C@H](CC3CCCCC3)NC(=O)[C@H](CCN)NC(=O)[C@@H](CC(C)C)NC(=O)[C@H](CCCN)NC(=O)[C@H](CCCNC(=N)N)NC(=O)[C@H](Cc3ccc(-c4ccccc4)cc3)NC(=O)[C@H](C(C)C)NC2=O)c1 [Compound 2025] ({CH2CO}-[Dap]Y(Carboxymethyl)D[Phe(3-Me)]V[Bip]R[Orn][dL][Dab][Cha]VTC[Dab][Aun]-NH2; thioether N-14)
10.2	Cc1cccc(C[C@@H]2NC(=O)[C@H](CC(=O)O)NC(=O)[C@H](Cc3ccc(OCC(=O)O)cc3)NC(=O)[C@H](CN)NC(=O)CSC[C@@H](C(=O)N[C@@H](CCN)C(=O)NCCCCCCCCCCC(=O)O)NC(=O)[C@H](CCCCN)NC(=O)[C@H](C(C)C)NC(=O)[C@H](CC3CCCCC3)NC(=O)[C@H](CCN)NC(=O)[C@@H](CC3CC3)NC(=O)[C@H](CCCN)NC(=O)[C@H](C(C)C)NC(=O)[C@H](Cc3ccc(-c4ccccc4)cc3)NC(=O)[C@H](C(C)C)NC2=O)c1 [Compound 2026] ({CH2CO}-[Dap]Y(Carboxymethyl)D[Phe(3-Me)]V[Bip]V[Orn][dAla(cPr)][Dab][Cha]VKC[Dab][Aun]-OH; thioether N-14)
15	Cc1cccc(C[C@@H]2NC(=O)[C@H](CC(=O)O)NC(=O)[C@H](Cc3ccc(OCC(=O)O)cc3)NC(=O)[C@H](CN)NC(=O)CSC[C@@H](C(=O)N[C@@H](CCN)C(=O)NCCCCCCCCCCC(=O)O)NC(=O)[C@H](CCCCN)NC(=O)[C@H](C(C)C)NC(=O)[C@H](CC3CCCCC3)NC(=O)[C@H](CCN)NC(=O)[C@@H](CC3CCC3)NC(=O)[C@H](CCCN)NC(=O)[C@H](C(C)C)NC(=O)[C@H](Cc3ccc(-c4ccccc4)cc3)NC(=O)[C@H](C(C)C)NC2=O)c1 [Compound 2027] ({CH2CO}-[Dap]Y(Carboxymethyl)D[Phe(3-Me)]V[Bip]V[Orn][dCba][Dab][Cha]VKC[Dab][Aun]-OH; thioether N-14)
13.7	CC(C)C[C@H]1NC(=O)[C@H](CCCN)NC(=O)[C@H](C(C)C)NC(=O)[C@H](Cc2ccc(-c3ccccc3)cc2)NC(=O)[C@H](C(C)C)NC(=O)[C@H](Cc2ccc(N)cc2)NC(=O)[C@H](CC(=O)O)NC(=O)[C@H](Cc2ccc(OCC(=O)O)cc2)NC(=O)[C@H](CN)NC(=O)CSC[C@@H](C(=O)N[C@@H](CCN)C(=O)NCCCCCCCCCCC(=O)O)NC(=O)[C@H](CCCCN)NC(=O)[C@H](C(C)C)NC(=O)[C@H](CC2CCCCC2)NC(=O)[C@H](CCN)NC1=O [Compound 2028] ({CH2CO}-[Dap]Y(Carboxymethyl)D[Phe(4-NH2)]V[Bip]V[Orn][dL][Dab][Cha]VKC[Dab][Aun]-OH; thioether N-14)
8	CC(C)C[C@H]1NC(=O)[C@H](CCCN)NC(=O)[C@H](C(C)C)NC(=O)[C@H](Cc2ccc(-c3ccccc3)cc2)NC(=O)[C@H](C(C)C)NC(=O)[C@H](Cc2cccc(O)c2)NC(=O)[C@H](CC(=O)O)NC(=O)[C@H](Cc2ccc(OCC(=O)O)cc2)NC(=O)[C@H](CN)NC(=O)CSC[C@@H](C(=O)N[C@@H](CCN)C(=O)NCCCCCCCCCCC(=O)O)NC(=O)[C@H](CCCCN)NC(=O)[C@H](C(C)C)NC(=O)[C@H](CC2CCCCC2)NC(=O)[C@H](CCN)NC1=O [Compound 2029] ({CH2CO}-[Dap]Y(Carboxymethyl)D[mTyr]V[Bip]V[Orn][dL][Dab][Cha]VKC[Dab][Aun]-OH; thioether N-14)
7.2	CC(C)C[C@H]1NC(=O)[C@H](CCCN)NC(=O)[C@H](C(C)C)NC(=O)[C@H](Cc2ccc(-c3ccccc3)cc2)NC(=O)[C@H](C(C)C)NC(=O)[C@H](Cc2ccc(O)c(F)c2)NC(=O)[C@H](CC(=O)O)NC(=O)[C@H](Cc2ccc(OCC(=O)O)cc2)NC(=O)[C@H](CN)NC(=O)CSC[C@@H](C(=O)N[C@@H](CCN)C(=O)NCCCCCCCCCCC(=O)O)NC(=O)[C@H](CCCCN)NC(=O)[C@H](C(C)C)NC(=O)[C@H](CC2CCCCC2)NC(=O)[C@H](CCN)NC1=O [Compound 2030] ({CH2CO}-[Dap]Y(Carboxymethyl)D[Tyr(3-F)]V[Bip]V[Orn][dL][Dab][Cha]VKC[Dab][Aun]-OH; thioether N-14)
147	CC(C)C[C@H]1NC(=O)[C@H](CCCN)NC(=O)[C@H](C(C)C)NC(=O)[C@H](Cc2ccc(-c3ccccc3)cc2)NC(=O)[C@H](C(C)C)NC(=O)[C@H](Cc2cc(F)c(O)c(F)c2)NC(=O)[C@H](CC(=O)O)NC(=O)[C@H](Cc2ccc(OCC(=O)O)cc2)NC(=O)[C@H](CN)NC(=O)CSC[C@@H](C(=O)N[C@@H](CCN)C(=O)NCCCCCCCCCCC(=O)O)NC(=O)[C@H](CCCCN)NC(=O)[C@H](C(C)C)NC(=O)[C@H](CC2CCCCC2)NC(=O)[C@H](CCN)NC1=O [Compound 2032] ({CH2CO}-[Dap]Y(Carboxymethyl)D[Tyr(3,5-F2)]V[Bip]V[Orn][dL][Dab][Cha]VKC[Dab][Aun]-OH; thioether N-14)
29.2	CC(C)C[C@H]1NC(=O)[C@H](CCCN)NC(=O)[C@H](C(C)C)NC(=O)[C@H](Cc2ccc(-c3ccccc3)cc2)NC(=O)[C@H](C(C)C)NC(=O)[C@H](Cc2ccc(O)cc2)NC(=O)[C@H](CC(=O)O)NC(=O)[C@H](Cc2ccc(OCC(=O)O)cc2)NC(=O)[C@H](CN)NC(=O)CSC[C@@H](C(=O)N[C@@H](CCN)C(=O)NCCCCCCCCCCC(=O)O)NC(=O)[C@H](CCCCN)NC(=O)[C@H](C(C)C)NC(=O)[C@H](CC2CCCCC2)NC(=O)[C@H](CCN)NC1=O [Compound 2033] ({CH2CO}-[Dap]Y(Carboxymethyl)DYV[Bip]V[Orn][dL][Dab][Cha]VKC[Dab][Aun]-OH; thioether N-14)
15.5	Cc1cccc(C[C@@H]2NC(=O)[C@H](CC(=O)O)NC(=O)[C@H](Cc3ccc(OCC(=O)O)cc3)NC(=O)[C@H](Cc3cncn3C)NC(=O)CSC[C@@H](C(=O)N[C@@H](CCN)C(=O)NCCCCCCCCCCC(=O)O)NC(=O)[C@H]([C@@H](C)O)NC(=O)[C@H](C(C)C)NC(=O)[C@H](CC3CCCCC3)NC(=O)[C@H](CCN)NC(=O)[C@@H](CC(C)C)NC(=O)[C@H](CCCN)NC(=O)[C@H](CCCNC(N)=O)NC(=O)[C@H](Cc3ccc(-c4ccccc4)cc3)NC(=O)[C@H](C(C)C)NC2=O)c1 [Compound 2034] ({CH2CO}-[His(π-Me)]Y(Carboxymethyl)D[Phe(3-Me)]V[Bip][Cit][Orn][dL][Dab][Cha]VTC[Dab][Aun]-OH; thioether N-14)
